Measured values reported in patent publication US20160168140A1, “HETEROCYCLIC COMPOUNDS AS ANTIBIOTIC POTENTIATORS” (priority 2014, published 2016).

How the values were obtained:
[1] = test system: Acinetobacter baumannii (Ab23); assay: MIC shift assay of antibiotics (broth microdilution); type: cell-based; conditions: Acinetobacter baumannii (Ab23); compound concentration 10 μM; MIC of colistin alone >8.0 μg/mL
Summary of the method: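 Broth microdilution MIC shift assay against Acinetobacter baumannii. Overnight cultures in cation-adjusted Mueller Hinton broth at 37° C. were sub-cultured 1:200, grown to OD600=0.5 to 0.8, diluted to OD600=0.01, and added (50 μL) to wells holding 50 μL of 2× antibiotic stocks for a starting OD600 of 0.005. After 18 to 20 h at 37° C. with shaking, OD600 was read to obtain MICs.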

E. coli = assay: as above; type: cell-based; conditions: E. coli (SCR1); compound concentration 10 μM; MIC of colistin alone 0.5-1.0 μg/mL
Experimental: Minimum inhibitory concentration (MIC) shift assays were performed to determine if the test compounds could alter the MIC of existing antibacterial drugs (e.g., ciprofloxacin and colistin) for E. coli, Acinetobacter baumannii, Klebsiella pneumoniae, Pseudomonas aeruginosa, and Enterobacter cloacae. The MIC shift assay is based on the standard broth microdilution MIC determination protocol of Wiegand et al, Nat Protoc. 3(2):163-75 (2008), with slight modifications that allow for the screening of up to seven test compounds in a single plate.
On the day before an assay, bacteria were grown overnight in cation-adjusted Mueller Hinton broth (CAMHB; Teknova, Hollister, Calif.) at 37° C. in an orbital shaker and sub-cultured at a 1:200 dilution the following morning. The cells were grown to OD600=0.5 to 0.8 and then diluted to OD600=0.01. From a serial dilution of each antibiotic at (50 μL of 2× concentrated stock solutions) several concentrations were added to the wells of a sterile, transparent round-bottom 96-well plate (Phenix Research Products, Candler, N.C.), and diluted cells (50 μL) were added to the plates for a starting OD600 of 0.005. Then, a test compound (2.5 μL) was added to each well to give a final concentration of 4 or 10 μM. A row of wells lacking test compound but containing the antibiotic was used to determine the MIC of that antibiotic alone. A column of wells lacking both antibiotic and test compound served as a growth control, and an additional column containing only CAMHB was included as a sterile blank control.
The plates were incubated for 18 to 20 h at 37° C. in an orbital shaker, and the cell density (OD600) was determined the following day in a microplate reader (PolarStar Optima, BMG Labtech). The MIC shift was determined by comparing the MIC of the antibiotic alone to the MIC of the antibiotic plus test compound.

[2] = test system: SOS response (sulAp-lacZ reporter) in E. coli strain DM4000; assay: Ciprofloxacin-induced SOS reporter gene expression assay (sulAp-lacZ, Beta-Glo luminescence, with or without PMBN); type: cell-based; conditions: Escherichia coli; in the presence of PMBN (4 μg/mL); read-out: SOS Attenuation EC50
Source text: An SOS reporter gene assay was used to assess the ability of the RecA inhibitor compounds to block the SOS response to ciprofloxacin. Details of the testing methodology are provided in, for example, Sandler et al., Genetics 143(1):5-13 (1996) and McCool et al., Mol Microbiol. 53(5):1343-57 (2004). The SOS genes are regulated by the transcriptional repressor LexA and the DNA-binding protein RecA. When DNA damage occurs, RecA binds to ssDNA, and this protein-DNA complex then induces the autocleavage of LexA, resulting in the depression of LexA-bound promoters. […] Therefore, a reporter construct wherein the sulA promoter (sulAp) is fused to the lacZ gene can be used to measure the level of the SOS response in cells using an assay for β-galactosidase activity.
E. coli strain DM4000 contains the sulAp-lacZ reporter gene inserted at the X attachment site. Two additional strains containing the same sulAp-lacZ reporter gene were used as RecA-independent controls in this assay. JC19098 encodes an un-cleaveable LexA repressor; therefore, the sulA promoter-dependent β-galactosidase expression is always off. […]
Luminescence was measured on a plate reader with the gain adjustment set to 40% of the maximum on a well with one of the highest luminescence values on the plate (e.g., a well containing ciprofloxacin without inhibitor). […]

E. coli RecA = molecular target: T1, E. coli RecA (Escherichia coli, UniProt P0A7G6); assay: RecA ssDNA-dependent ATPase assay (coupled enzyme, amplex red fluorescence); type: biochemical; conditions: read-out: RecA Inhibition IC50
T1 construct: purchased New England BioLabs
T1 sequence (P0A7G6 2-353): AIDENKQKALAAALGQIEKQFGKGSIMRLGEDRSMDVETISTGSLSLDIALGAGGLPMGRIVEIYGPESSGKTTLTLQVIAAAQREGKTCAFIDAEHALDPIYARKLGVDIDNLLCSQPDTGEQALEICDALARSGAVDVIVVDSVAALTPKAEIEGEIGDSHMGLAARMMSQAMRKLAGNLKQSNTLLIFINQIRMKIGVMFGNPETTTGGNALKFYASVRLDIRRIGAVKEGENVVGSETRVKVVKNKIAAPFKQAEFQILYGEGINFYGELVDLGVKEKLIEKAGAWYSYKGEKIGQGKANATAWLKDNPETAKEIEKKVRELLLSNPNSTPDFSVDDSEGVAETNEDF
Experimental: A coupled enzyme ATPase assay, similar to that described in Wigle and Singleton, BioorgMed Chem Lett. 17(12):3249-53 (2007), was used to screen compounds for in vitro activity against RecA. A solution of the compound to be tested dissolved in DMSO (5 μL of 20× concentrated stock) was added to 90 μL of a master mix containing the following components at their final concentrations in the appropriate wells of flat-bottomed black 96-well plates (Corning Life Sciences, Corning N.Y.) at 37° C.: 0.5 μM E. coli RecA (New England BioLabs), 10 mM Mg(OAc)2 (Sigma, St. Louis, Mo.), 500 μM ATP (Sigma), 250 μM phosphoenolpyruvate (Sigma), 100 μM amplex red (Invitrogen, Carlsbad, Calif.), 1 U/mL pyruvate kinase (Sigma), 1 U/mL pyruvate oxidase (Thermo Fisher Scientific, Waltham, Mass.), 1 U/mL horseradish peroxidase (Sigma), and 20 mM Tris*HOAc, pH 7.5 (Boston BioProducts, Ashland, Mass.). The total volume of the assay solution was 100 μL. […]
The fluorescence emission at 595 nm (excitation at 485 nm) was then recorded using a microplate reader (PolarStar Optima, BMG Labtech, Ortenberg, Germany) for approximately 25 min to establish the baseline fluorescence.
To initiate the reactions, poly(dT) (5 μL of a 100 μM-nts stock solution) was added to each well to give a final DNA concentration of 5 μM-nts. Fluorescence emission was recorded for an additional 90 min. […]

`CN(C)CCCNc1nc(/C=C/c2ccc(Cl)c(Cl)c2)nc2c(C(F)(F)F)cccc12` [MLJ-02-070A] was tested, and the “Colistin MIC Shift” value [1] was >128X, the “Colistin MIC Shift” value (E. coli) was 16-32X and the EC50 [2] was < 6 µM. For the same compound, the IC50 (E. coli RecA) was 12 µM.
For `Clc1ccc(/C=C/c2c[nH]c3ccc(Br)cc23)cc1Cl` [MLJ-02-086B], the “Colistin MIC Shift” value [1] was >64X, the “Colistin MIC Shift” value (E. coli) was 8-16X and the EC50 [2] was 8 µM. It also gave an IC50 (E. coli RecA) of 15 µM.
